Test results as given in patent publication US20240342316A1, “A PHARMACEUTICAL COMPOSITION FOR IMAGING” (ASTELLAS PHARMA INC., priority 2021, published 2024).

Columns and labels:
[1] = Phase 1 single ascending IV bolus dose study: plasma and urine pharmacokinetics; settings: for t1/2, apparent terminal plasma elimination half-life: healthy participants, n = 4, arithmetic mean
Description: The study (ClinicalTrials.gov Identifier: NCT03698305) was a randomized, double-blind, placebo-controlled, sequential ascending IV bolus dose group study conducted at a single center (Covance Clinical Research Unit, Inc.) in the United States.
The study population, 30 participants in all, was comprised of 5 cohorts consisting of 6 healthy volunteers (3 females and 3 males) per cohort. […] The study consisted of a screening period, an investigational period, and a follow-up period (FIG. 1). Following successful screening, participants were admitted to the clinic on study day −1.
After at least 5 of 6 patients in a cohort had completed the study procedure, a Dose-Escalation Committee reviewed all PK and safety data, and decided whether to proceed with dose escalation, stop dose escalation, repeat a dose level, or investigate a lower dose level intermediate between the current and prior doses.
Blood and urine samples were collected over a 24-hour period. Participants were discharged on day 2, returned to the clinic for a follow-up visit on day 7, and the study was completed with a follow-up phone call on day 14. To prevent accidental unblinding should the urine be discolored, catheter and tubing collection bags were covered, and participants were prevented from observing these or the collection vials when changed.
Urine interval sampling was between −1 hour and time of dosing, and between each subsequent consecutive urine sample collection time point.
The safety population comprised all participants who received a single dose of study drug. The PK population comprised safety population participants for which data were available for derivation of ≥1 PK parameter. Pharmacokinetic parameters were calculated by noncompartmental analysis using Phoenix WinNonlin version 8.1 and were summarized by treatment group.

[2] = NIR versus white light; cited from earlier work

With COC1=C(/C=C/C2=[N+](CCC(=O)NCCCO[C@H]3[C@H]4O[C@H]5[C@H](O)[C@@H](O)[C@@H](O[C@H]6[C@H](O)[C@@H](O)[C@@H](O[C@H]7[C@H](O)[C@@H](O)[C@@H](O[C@H]8[C@H](O)[C@@H](O)[C@@H](O[C@H]9[C@H](O)[C@@H](O)[C@@H](O[C@H]%10[C@H](O)[C@@H](O)[C@@H](O[C@@H]([C@@H]3O)[C@@H](CO)O4)O[C@@H]%10CO)O[C@@H]9CO)O[C@@H]8CO)O[C@@H]7CO)O[C@@H]6CO)O[C@@H]5CO)c3ccc4ccccc4c3C2(C)C)CCC/C1=C\C=C1\N(CCC(=O)NCCCO[C@H]2[C@H]3O[C@H]4[C@H](O)[C@@H](O)[C@@H](O[C@H]5[C@H](O)[C@@H](O)[C@@H](O[C@H]6[C@H](O)[C@@H](O)[C@@H](O[C@H]7[C@H](O)[C@@H](O)[C@@H](O[C@H]8[C@H](O)[C@@H](O)[C@@H](O[C@H]9[C@H](O)[C@@H](O)[C@@H](O[C@@H]([C@@H]2O)[C@@H](CO)O3)O[C@@H]9CO)O[C@@H]8CO)O[C@@H]7CO)O[C@@H]6CO)O[C@@H]5CO)O[C@@H]4CO)c2ccc3ccccc3c2C1(C)C [Pudexacianinium] the “Mean terminal half-life, range across doses” value ([1]; 0.1 mg to 24 mg single IV bolus) was 2.1 to 3.6 h, the “t1/2, apparent terminal plasma elimination half-life” value ([1]; single IV bolus 0.1 mg) was 2.24 h and the “t1/2, apparent terminal plasma elimination half-life” value ([1]; single IV bolus 0.5 mg) was 2.23 h. The “t1/2, apparent terminal plasma elimination half-life” value ([1]; single IV bolus 2 mg) was 2.10 h, the “t1/2, apparent terminal plasma elimination half-life” value ([1]; single IV bolus 8 mg) was 3.58 h and the “t1/2, apparent terminal plasma elimination half-life” value ([1]; single IV bolus 24 mg) was 3.41 h.

In the case of CN(C)c1ccc2nc3ccc(=[N+](C)C)cc-3sc2c1 [methylene blue], the “NIRF ureter visualization in first-in-human study” value [2] is listed as “did not provide sufficient optical properties to offer any visualization advantage with NIR over white light”.
